Here are results for nine molecules from patent EP0920441B1, “7ALPHA-(EPSILON-AMINOALKYL)-ESTRATRIENES, PROCESS FOR PREPARING THE SAME, PHARMACEUTICAL PREPARATIONS CONTAINING SAID 7ALPHA-(EPSILON-AMINOALKYL)-ESTRATRIENES AND THEIR USE FOR PREPARING MEDICAMENT” (SCHERING AKTIENGESELLSCHAFT, priority 1996, dated 1998).

One test concerns the target T1, humanem Estrogenrezeptor (Homo sapiens, UniProt P03372).
T1 construct: expressed in transfected cells; host or cells: HeLa cells, transiently transfected with HEGO
T1 sequence (P03372 1-595): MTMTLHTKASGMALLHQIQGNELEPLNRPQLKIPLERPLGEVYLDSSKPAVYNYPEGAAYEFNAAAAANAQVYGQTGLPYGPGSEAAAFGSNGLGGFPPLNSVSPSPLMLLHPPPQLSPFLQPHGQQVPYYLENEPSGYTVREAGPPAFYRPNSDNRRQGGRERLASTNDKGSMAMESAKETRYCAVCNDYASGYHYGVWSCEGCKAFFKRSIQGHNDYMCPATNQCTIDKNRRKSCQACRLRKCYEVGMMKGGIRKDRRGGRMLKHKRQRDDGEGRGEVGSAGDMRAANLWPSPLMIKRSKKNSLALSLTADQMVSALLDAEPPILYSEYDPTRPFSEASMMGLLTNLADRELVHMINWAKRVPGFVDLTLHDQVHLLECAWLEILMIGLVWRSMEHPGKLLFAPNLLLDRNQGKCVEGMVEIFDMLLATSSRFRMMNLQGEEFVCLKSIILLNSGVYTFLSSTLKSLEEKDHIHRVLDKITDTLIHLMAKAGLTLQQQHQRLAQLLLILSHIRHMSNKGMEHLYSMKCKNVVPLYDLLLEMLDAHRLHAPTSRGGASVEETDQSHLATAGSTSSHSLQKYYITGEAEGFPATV
Nature of the test: Transactivation assay for antiestrogenic activity in HeLa cells (HEGO + Vit-TK-CAT reporter). The format is cell-based. To be noted: Hela cells transiently transfected with HEGO and Vit-TK-CAT; in presence of 0,1 nM Estradiol; read-out: IC50 [nM] Hela-Zellen. The source says:
Die antiestrogene Wirkung der erfindungsgemäßen Verbindungen wurde in Transaktivierungsassays bestimmt [Demirpence E., Duchesne M.-J., Badia E., Gagne D. und Pons M.: MVLN Cells: A Bioluminescent MCF-7-Derived Cell Line to study the Modulation of Estrogenic Activity; J. Steroid. Molec.
Die Hela-Zellen sind transient mit humanem Estrogenrezeptor-Expressionsvektor (HEGO) und Vit-TK-CAT Reportergen und die MVLN-Zellen stabil mit dem Reportergen Vit-TK-LUC transfiziert. Es wurde die […] Wirkstärke in Gegenwart von 0,1 nM Estradiol bestimmt.

In a further test the test system is Uterus. Description: Uterus growth test in the infantile rat, p.o. (antiestrogenic / antiuterotrophic activity). Format: in vivo, Ratte. The note with it: 0,1 mg/kg p.o. once daily for 3 days with 0,5 µg Estradiolbenzoat s.c., inhibition of uterus weight versus EB control. The source says:
1. Uteruswachstumstest bei der infantilen Ratte (antiestrogene Wirkung)
Bei Nagern reagiert der Uterus auf die Applikation von estrogenen mit einer Gewichtszunahme (sowohl Proliferation als auch Wassereinlagerung). Dieses Wachstum ist durch gleichzeitige Gäbe antiestrogen-wirkender Verbindungen dosisabhängig zu hemmen. * = Dimethylbenzanthrazen
Infantile weibliche Ratten im Gewicht von 35-45 g bei Versuchsbeginn, pro Dosis 5-6 Tiere.
Für die p.o. Applikation werden die Substanzen in 1 Teil Ethanol (E) gelöst und mit 9 Teilen Erdnußöl (EÖ) aufgefüllt.
Die gerade von den Müttern abgesetzten jungen Ratten werden zur Eingewöhnung einen Tag vor Behandlungsbeginn geliefert und sofort mit Futter - auch in dem Tierkäfig - versorgt. Die Behandlung erfolgt dann täglich einmal über 3 Tage in Kombination mit 0,5 µg Estradiolbenzoat (EB). EB wird immer subcutan (s.c.) appliziert, während die Testsubstanz p.o. (peroral) verabreicht wird. 24 Stunden nach der letzten Applikation werden die Tiere gewogen, getötet und die Uteri entnommen. Von den präparierten Uteri werden die Feuchtgewichte (ohne Inhalt) ermittelt.
• negative Kontrolle: Vehikel (E/EÖ), 0,2 ml/Tier/Tag • positive Kontrolle: 0,5 µg EB/0,1 ml/Tier/Tag
Von den relativen Organgewichten (mg/100 g Körpergewicht) werden für jede Gruppe die Mittelwerte mit Standardabweichung (X+SD), sowie die Signifikanz der Unterschiede zur Kontrollgruppe (EB) im Dunnett-Test (p<0.05) ermittelt. Die Berechnung der Hemmung (in %) gegenüber der EB-Kontrolle erfolgt mit einem Programm. Die relativen Wirksamkeiten der Prüfsubstanzen werden durch eine Kovarianz- und Regressionsanalyse ermittelt.

Test [1] in a line: Antiestrogenic activity (test not specified).
Test [2] has as its system DMBA-induzierten Mammatumors. Nature of the test: DMBA tumour model in the rat (influence on tumour growth). Format: in vivo, Ratte. The source says:
Beeinflussung des Tumorwachstums im DMBA*-Modell bei der Ratte (DMBA-Tumormodell)
Das Wachstum des DMBA-induzierten Mammatumors der Ratte ist weitgehend von Estrogenen und Prolaktin abhängig. Wirksame Antiestrogene, Antigestagene und Aromatasehemmer führen zur Hemmung des Tumorwachsturns. Substanzen, die antigonadotrope und androgene Eigenschaften besitzen, entfalten ebenfalls tumorhemmende Wirkung.
45 - 47 Tage alte weibliche Ratten (Sprague-Dawley, Züchter ZIH oder Möllegard), pro Gruppe 8 - 10 Tiere. *9,10-Dimethyl-1,2-benzanthracen
Die Tiere erhalten einmalig 10 mg DMBA oral. Anschließend werden die Tiere einmal wöchentlich palpatorisch auf Tumorentwicklung untersucht. 6 bis 10 Wochen nach der DMBA-Behandlung entwickeln sich etwa 1 bis 10 Tumoren pro Tier. Die Tumorgröße wird einmal wöchentlich mit Hilfe einer Schiebelehre bestimmt. Hat mindestens ein Tumor eine definierte Größe (150 mm^2 Tumorfläche) erreicht, erfolgt die Ovariektomie der Tiere bzw. beginnt die Behandlung der Tiere mit der Testsubstanz. Die Behandlung erfolgt zumeist täglich über ca. 28 Tage (Details Abwicklung siehe Versuchsplan). Die Tumorgröße wird weiterhin 1 x /Woche ermittelt.
Die Gesamttumorgröße pro Tier wird vor Beginn der Behandlung ermittelt (Vorwerte). Für jede Gruppe wird dann der Mittelwert der prozentualen Veränderungen der Tumorgröße, bezogen auf die initialen Werte, errechnet. […]

Consider `CN(CCCCC[C@@H]1Cc2cc(O)ccc2[C@@H]2[C@@H]1[C@@H]1CC[C@](C)(O)[C@@]1(C)C[C@@H]2F)CCCSCCCC(F)(F)C(F)(F)F` [Beispiel 36, 11β-Fluor-17α-methyl-7α-{5-[N-methyl-N-3-(4,4,5,5,5-pentafluorpentylthio)-propylamino]-pentyl}-estra-1,3,5(10)-trien-3,17β-diol], for which the IC50 on humanem Estrogenrezeptor came out at 0.05 nM. In addition, in the test with Uterus, the “0,1 mg/kg p.o. % Hemmung” value stood at 62%.
`CN(CCCCC[C@@H]1Cc2cc(O)ccc2[C@@H]2[C@@H]1[C@@H]1CCC(=O)[C@@]1(C)C[C@@H]2F)CCCSCCCC(F)(F)C(F)(F)F` [Beispiel 40, 11β-Fluor-7α-{5-[N-methyl-N-3-{4,4,5,5,5-pentafluorpentylthio)-propylamino]-pentyl}-3-hydroxy-estra-1,3,5(10)-trien-17-on]: the “antiestrogene Wirksamkeit” value in test [1] is given as “stark antiestrogen wirksam”.
For `CN(CCCCC[C@@H]1Cc2cc(O)ccc2[C@H]2CC[C@@]3(C)C(=CC[C@@H]3O)[C@H]12)CCCS(=O)(=O)CCCC(F)(F)C(F)(F)F` [Beispiel 25, 7α-{5-[N-Methyl-N-3-(4,4,5,5,5-pentafluorpentansulfonyl)-propylamino]-pentyl}-estra-1,3,5(10),14-tetraen-3,17β-diol], the IC50 on humanem Estrogenrezeptor came to 0.06 nM.
With `CN(CCCCC[C@@H]1Cc2cc(O)ccc2[C@@H]2[C@@H]1[C@@H]1CC[C@H](O)[C@@]1(C)C[C@@H]2F)CCCSCCCC(F)(F)C(F)(F)F` [Beispiel 12, 11β-Fluor-7α-{5-(N-methyl-N-3-(4,4,5,5,5-pentafluorpentylthio)-propytamino]-pentyl}-estra-1,3,5(10)-trien-3,17β-diol], the 50% inhibitory concentration (IC50) on humanem Estrogenrezeptor was determined as 0.06 nM. Besides, the “0,1 mg/kg p.o. % Hemmung” value in the test on Uterus is given as 91%.
On to `C[C@]1(O)CC[C@H]2[C@@H]3[C@H](CCCCCN4CCC[C@H]4CSCCCC(F)(F)C(F)(F)F)Cc4cc(O)ccc4[C@H]3[C@@H](F)C[C@@]21C` [Beispiel 31, 11β-Fluor-17α-methyl-7α-{5-[(2S)-2-(4,4,5,5,5-pentafluorpentylthiomethyl)-pyrrolidin-1-yl]-pentyl}-estra-1,3,5(10)-trien-3,17β-diol], for which the IC50 at humanem Estrogenrezeptor was found to be 0.1 nM. Further, the “0,1 mg/kg p.o. % Hemmung” value in the test with Uterus is reported as 71%.
Take `C[C@]12C[C@H](F)[C@@H]3c4ccc(O)cc4C[C@@H](CCCCCN4CCC[C@H]4CSCCCC(F)(F)C(F)(F)F)[C@H]3[C@@H]1CC[C@@H]2O` [Beispiel 29, 11β-Fluor-7α-{5-[2-(4,4,5,5,5-pentafluorpentylthiomethyl)-pyrrolidin-1-yl]-pentyl}-estra-1,3,5(10)-trien-3,17β-diol]: the IC50 at humanem Estrogenrezeptor came to 0.13 nM. Further, the “0,1 mg/kg p.o. % Hemmung” value with Uterus came to 80%. The “Hemmung des Tumorwachstums” value in test [2] (oral dose 3 mg/kg/Tag (Figur 1)) is “stärker als eine orale Dosis von 10 mg/kg/Tag 7α-[9-(4,4,5,5,5-Pentafluorpentansulfinyl)-nonyl]-estra-1,3,5(10)-trien-3,17β-diol”.
`C[C@]12CC[C@@H]3c4ccc(O)cc4C[C@@H](CCCCCCCCC[S+]([O-])CCCC(F)(F)C(F)(F)F)[C@H]3[C@@H]1CC[C@@H]2O` (stereo partly drawn) [ZM 182 780, 7α-[9-(4,4,5,5,5-Pentafluorpentansulfinyl)-nonyl]-estra-1,3,5(10)-trien-3,17β-diol, reference compound]: the “0,1 mg/kg p.o. % Hemmung” value in the test with Uterus is 8%. Further, in test [2] (oral dose 10 mg/kg/Tag (Figur 1)), the “Hemmung des Tumorwachstums” value was “nur eine geringfügige Wirkung im Vergleich zur intakten Kontrolle”.
`CN(CCCCC[C@@H]1Cc2cc(O)ccc2[C@H]2CC[C@@]3(C)[C@@H](C[C@@H](F)[C@]3(C)O)[C@H]12)CCCSCCCC(F)(F)C(F)(F)F` [Beispiel 15, 16α-Fluor-17α-methyl-7α-{5-[N-methyl-N-3-(4,4,5,5,5-pentafluorpentylthio)-propylamino]-pentyl}-estra-1,3,5(10)-trien-3,17β-diol]: the IC50 on humanem Estrogenrezeptor is 0.06 nM. Also, the “0,1 mg/kg p.o. % Hemmung” value with Uterus is given as 33%.
For `CN(CCCCC[C@@H]1Cc2cc(O)ccc2[C@H]2CC[C@@]3(C)[C@@H](C[C@@H](F)[C@]3(C)O)[C@H]12)CCCS(=O)(=O)CCCC(F)(F)C(F)(F)F` [Beispiel 18, 16α-Fluor-17α-methyl-7α-{5-[N-methyl-N-3-(4,4,5,5,5-pentafluorpentansulfonyl)-propylamino]-pentyl}-estra-1,3,5(10)-trien-3,17β-diol], in that order: 0.05 nM and 16%.
